{"source": "ChEMBL document CHEMBL3525940", "about": "“The tissue-specific toxicity of methimazole in the mouse olfactory mucosa is partly mediated through target-tissue metabolic activation by CYP2A5” (Drug Metab Dispos, 2011)", "key": {"Mus musculus [1]": {"system": "Mus musculus", "test": "Toxicity in wild-type littermates mouse olfactory mucosa assessed as epithelium loss measured as intact olfactory epithelium at 50 mg/kg, ip by hematoxylin/eosin staining", "format": "organism-based", "parameters": "dose 50 mg/kg, route intraperitoneal", "settings": "in vivo"}, "Mus musculus [2]": {"system": "Mus musculus", "test": "Toxicity in Cyp2a5-null B6 mouse olfactory mucosa assessed as depletion of nonprotein sulfhydryl at 50 mg/kg, ip at 2 hrs relative to vehicle treated control", "format": "organism-based", "parameters": "dose 50 mg/kg, route intraperitoneal", "settings": "in vivo"}, "Mus musculus [3]": {"system": "Mus musculus", "test": "Toxicity in wild-type B6 mouse olfactory mucosa assessed as depletion of nonprotein sulfhydryl at 50 mg/kg, ip at 2 hrs relative to vehicle treated control", "format": "organism-based", "parameters": "dose 50 mg/kg, route intraperitoneal", "settings": "in vivo"}, "Mus musculus [4]": {"system": "Mus musculus", "test": "Toxicity in wild-type mouse olfactory mucosa assessed as epithelium loss at 50 mg/kg, ip by hematoxylin/eosin staining", "format": "organism-based", "parameters": "dose 50 mg/kg, route intraperitoneal", "settings": "in vivo"}, "Mus musculus [5]": {"system": "Mus musculus", "test": "Toxicity in wild-type mouse olfactory mucosa assessed as abnormal nasal cavity and epithelium at 50 mg/kg, ip by hematoxylin/eosin staining", "format": "organism-based", "parameters": "dose 50 mg/kg, route intraperitoneal", "settings": "in vivo"}, "Mus musculus [6]": {"system": "Mus musculus", "test": "Toxicity in wild-type mouse olfactory mucosa assessed as detached epithelium from basement membrane, fractured and disorganized at 50 mg/kg, ip by hematoxylin/eosin staining", "format": "organism-based", "parameters": "dose 50 mg/kg, route intraperitoneal", "settings": "in vivo"}, "Mus musculus [7]": {"system": "Mus musculus", "test": "Toxicity in Cyp2a5-null B6 mouse olfactory mucosa assessed as attached epithelium from basement membrane at 50 mg/kg, ip by hematoxylin/eosin staining", "format": "organism-based", "parameters": "dose 50 mg/kg, route intraperitoneal", "settings": "in vivo"}, "Mus musculus [8]": {"system": "Mus musculus", "test": "Toxicity in Cyp2a5-null B6 mouse olfactory mucosa assessed as abnormal nasal cavity and epithelium at 50 mg/kg, ip by hematoxylin/eosin staining", "format": "organism-based", "parameters": "dose 50 mg/kg, route intraperitoneal", "settings": "in vivo"}, "Mus musculus [9]": {"system": "Mus musculus", "test": "Toxicity in Cyp2a5-null B6 mouse olfactory mucosa assessed as epithelium loss measured as intact olfactory epithelium at 50 mg/kg, ip by hematoxylin/eosin staining", "format": "organism-based", "parameters": "dose 50 mg/kg, route intraperitoneal", "settings": "in vivo"}, "Mus musculus [10]": {"system": "Mus musculus", "test": "Toxicity in wild-type B6 mouse olfactory mucosa assessed as epithelium loss measured as intact olfactory epithelium at 50 mg/kg, ip by hematoxylin/eosin staining", "format": "organism-based", "parameters": "dose 50 mg/kg, route intraperitoneal", "settings": "in vivo"}, "[11]": {"test": "Drug metabolism in wild-type mouse olfactory mucosa microsomes assessed as rate of disappearance of compound at 5 uM after 15 mins", "format": "ADME", "settings": "read-out: Drug metabolism"}, "[12]": {"test": "Drug metabolism in Cyp2a5-null B6 mouse olfactory mucosa microsomes assessed as rate of disappearance of compound at 5 uM after 15 mins", "format": "ADME", "settings": "B6 (C57BL/6), read-out: Drug metabolism"}}}
{"molecule": "Cn1cc[nH]c1=S", "note": "[METHIMAZOLE]", "values": [{"measurement": "Activity", "setting": "Mus musculus [1]", "result": 39.8, "unit": "%"}, {"measurement": "Activity", "setting": "Mus musculus [2]", "result": 41.5, "unit": "%"}, {"measurement": "Activity", "setting": "Mus musculus [3]", "result": 51.8, "unit": "%"}, {"measurement": "Activity", "setting": "Mus musculus [4]", "result": "Toxic"}, {"measurement": "Activity", "setting": "Mus musculus [5]", "result": "Toxic"}, {"measurement": "Activity", "setting": "Mus musculus [6]", "result": "Toxic"}, {"measurement": "Activity", "setting": "Mus musculus [7]", "result": "Non-toxic"}, {"measurement": "Activity", "setting": "Mus musculus [8]", "result": "Non-toxic"}, {"measurement": "Activity", "setting": "Mus musculus [9]", "result": 60.9, "unit": "%"}, {"measurement": "Activity", "setting": "Mus musculus [10]", "result": 14.6, "unit": "%"}, {"measurement": "metabolised at 0.25 h, 5 µM", "setting": "[11]", "result": 58.7, "unit": "%"}, {"measurement": "metabolised at 0.25 h, 5 µM", "setting": "[12]", "result": 28.7, "unit": "%"}]}
